What was measured:
[1] = system: herpes simplex virus type 1(HSV-1) (strain 17i); assay: Antiviral plaque reduction assay, HSV-1; type: cell-based; conditions: Human alphaherpesvirus 1; HSV-1, Vero cells, plaque numbers after 2 or 3 days
Method: (§1) Compound 34 is tested for antiviral activity against herpes simplex virus type 1(HSV-1) (strain 17i) and herpes simplex virus type 2(HSV-2) (strain HG52) in vitro. Aqueous solutions of the compounds are prepared at concentrations between 10mM and […]. The solutions are stored at -70°C after preparation and thawed prior to use in the antiviral assays. After thawing, the solutions are diluted to the appropriate concentration in the cell-culture medium without prior filtration.
(§2) In a procedure similar to that described by Tyms etal, J. Antimicrob. Chemother, 8,65-72 (1981), cell monolayers are infected with 20-200 plaque forming units and after virus adsorption the inoculum is replaced by maintenance medium containing different concentrations of the compound under investigation. Virus spread is prevented by the incorporation of 0.5% low gelling temperature agarose. At the end of a set period (2 or 3 days) monolayers are fixed, stained with methylene blue and plaque numbers determined.

[2] = system: herpes simplex virus type 2(HSV-2) (strain HG52); assay: Antiviral plaque reduction assay, HSV-2; type: cell-based; conditions: Human alphaherpesvirus 2; HSV-2, Vero cells, plaque numbers after 2 or 3 days
Method: as §1, §2

`Cc1cn(C2CC(O)C(CCP(=O)(c3ccccc3)C(O)C3CC(n4cc(C)c(=O)[nH]c4=O)OC3CO[Si](c3ccccc3)(c3ccccc3)C(C)(C)C)O2)c(=O)[nH]c1=O` (centres unmarked) [Compound 34] gave an IC50 [1] of 2.6 µM and an IC50 [2] of 3.8 µM.
